These results are taken from patent US20230031406A1, “COMPOUNDS AND COMPOSITIONS FOR TREATING CONDITIONS ASSOCIATED WITH NLRP ACTIVITY” (Novartis AG, priority 2018, published 2023).

Assay [1] deals with PMA-differentiated THP-1 cells. Briefly: IL-1β production in PMA-differentiated THP-1 cells stimulated with gramicidin (hTHP-1 assay containing 2% fetal bovine serum; Procedures 1 and 2). The class given is cell-based, human. Conditions: Table B5. A digest of the protocol: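 PMA-primed (20 ng/ml, 16-18 h) THP-1 cells in RPMI with 2% FBS, 50,000 cells/well, were preincubated 1 h with compound (0.0017-100 μM final, 0.37% DMSO), then stimulated 2 h with 5 μM gramicidin. Supernatant IL-1β measured by HTRF.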

Assay [2] concerns PMA-differentiated THP-1 cells. The experiment in a line: hTHP-1 assay containing 10% fetal bovine serum (IL-1β production, Tables B5 and B6). The class given is cell-based, human. The procedure, abridged:
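IL-1β release from PMA-differentiated THP-1 macrophage-like cells was triggered by 5 μM gramicidin for 2 h after 1 h compound exposure, then measured by HTRF.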

[3] abbreviates: Homo sapiens, THP-1, read-out: hTHP-1 IC50 in 2% FBS, hTHP-1 assay containing 2% fetal bovine serum.
The mark [4] stands for this setting: Homo sapiens, THP-1, read-out: hTHP-1 IC50 in 10% FBS, hTHP-1 assay containing 10% fetal bovine serum, Table B5.
Setting [5] is: read-out: hTHP-1 IC50 in 10% FBS, hTHP-1 assay containing 10% fetal bovine serum, Table B6.

In general, IC50 refers to the concentration that gives 50% inhibition.

Turning to `CC(C)n1cc(F)c(S(N)(=O)=NC(=O)Nc2c3c(nc(C4CC4)c2C2CC2)CCC3)n1` (stereo not shown) [Compound 1103, N′-((2,3-dicyclopropyl-6,7-dihydro-5H-cyclopenta[b]pyridin-4-yl)carbamoyl)-4-fluoro-1-isopropyl-1H-pyrazole-3-sulfonimidamide], the IC50 in assay [1] (setting [3]) and in assay [2] (setting [4]) was 40 to 200 nM in each case.
In the case of `CCn1cc(F)c(S(N)(=O)=NC(=O)Nc2c(C)c(C(F)(F)F)nc3c2CC(C)C3)n1` (stereo not shown) [Compound 1101, N′-((3,6-dimethyl-2-(trifluoromethyl)-6,7-dihydro-5H-cyclopenta[b]pyridin-4-yl)carbamoyl)-1-ethyl-4-fluoro-1H-pyrazole-3-sulfonimidamide], the IC50 lay within 8 to 40 nM in assay [1] (read-out: hTHP-1 IC50 in 2% FBS, hTHP-1 assay containing 2% fetal bovine serum, listed as 796) and 200 to 1000 nM in assay [2] (read-out: hTHP-1 IC50 in 10% FBS, hTHP-1 assay containing 10% fetal bovine serum, Table B5, listed as 796).
Take `CCn1cc(F)c(S(N)(=O)=NC(=O)Nc2c(C)c(C(F)(F)F)nc3c2C(C)CC3)n1` (single isomer, unassigned) [Compound 1100c, (S, R) or (S, S)-N′-((3,5-dimethyl-2-(trifluoromethyl)-6,7-dihydro-5H-cyclopenta[b]pyridin-4-yl)carbamoyl)-1-ethyl-4-fluoro-1H-pyrazole-3-sulfonimidamide]: the IC50 in assay [1] (read-out: hTHP-1 IC50 in 2% FBS, hTHP-1 assay containing 2% fetal bovine serum, listed as 819) was 5000 to 30000 nM; in assay [2] (read-out: hTHP-1 IC50 in 10% FBS, hTHP-1 assay containing 10% fetal bovine serum, Table B5, listed as 819) it was 5000 to 30000 nM.
In the case of `CCn1cc(F)c([S@](N)(=O)=NC(=O)Nc2c(C)c(C(F)(F)F)nc3c2[C@@H](C)CC3)n1` (single isomer, unassigned) [Compound 1100b, (R, S) or (R, R)-N′-((3,5-dimethyl-2-(trifluoromethyl)-6,7-dihydro-5H-cyclopenta[b]pyridin-4-yl)carbamoyl)-1-ethyl-4-fluoro-1H-pyrazole-3-sulfonimidamide], the values for the IC50 in assay [1] (setting [3]) and in assay [2] (setting [4]) were 200 to 1000 nM and 40 to 200 nM, respectively.
As for `CCn1cc(F)c(S(N)(=O)=NC(=O)Nc2c(C)c(C(F)(F)F)nc3c2C(C)CC3)n1` (stereo not shown) [Compound 1100, N′-((3,5-dimethyl-2-(trifluoromethyl)-6,7-dihydro-5H-cyclopenta[b]pyridin-4-yl)carbamoyl)-1-ethyl-4-fluoro-1H-pyrazole-3-sulfonimidamide], the IC50 was 1000 to 5000 nM in assay [1] (read-out: hTHP-1 IC50 in 2% FBS, hTHP-1 assay containing 2% fetal bovine serum, listed as 795) and 1000 to 5000 nM in assay [2] (read-out: hTHP-1 IC50 in 10% FBS, hTHP-1 assay containing 10% fetal bovine serum, Table B5, listed as 795).
Turning to `CC(C)n1cc(F)c(S(N)(=O)=NC(=O)Nc2c3c(nc4c2CCC42CC2)CCC3)n1` (single isomer, unassigned) [Compound 1102a, (R) or (S)-4-Fluoro-1-isopropyl-N′-((1′,5′,6′,7′-tetrahydro-2′H-spiro [cyclopropane-1,3′-dicyclopenta[b,e]pyridin]-8′-yl)carbamoyl)-1H-pyrazole-3-sulfonimidamide], the IC50 in assay [1] (read-out: hTHP-1 IC50 in 2% FBS, hTHP-1 assay containing 2% fetal bovine serum, listed as 813) lay within 8 to 40 nM; in assay [2] (read-out: hTHP-1 IC50 in 10% FBS, hTHP-1 assay containing 10% fetal bovine serum, Table B5, listed as 813) it was 8 to 40 nM.
On to `CCn1cc(F)c(S(N)(=O)=NC(=O)Nc2c(C)c(C(F)(F)F)nc3c2CC(C)C3)n1` (single isomer, unassigned) [Compound 1101b, (S, R) or (S, S)-N′-((3,6-dimethyl-2-(trifluoromethyl)-6,7-dihydro-5H-cyclopenta[b]pyridin-4-yl)carbamoyl)-1-ethyl-4-fluoro-1H-pyrazole-3-sulfonimidamide], for which the concentration for half-maximal inhibition (IC50) fell in the range of 1000 to 5000 nM in assay [1] (read-out: hTHP-1 IC50 in 2% FBS, hTHP-1 assay containing 2% fetal bovine serum, listed as 822) and 1000 to 5000 nM in assay [2] (read-out: hTHP-1 IC50 in 10% FBS, hTHP-1 assay containing 10% fetal bovine serum, Table B5, listed as 822).
Regarding `CC(C)n1cc(F)c(S(N)(=O)=NC(=O)Nc2c3c(nc(C4CC4)c2C2CC2)CCC3)n1` (single isomer, unassigned) [Compound 1103b, (S) or (R)-N′-((2,3-dicyclopropyl-6,7-dihydro-5H-cyclopenta[b]pyridin-4-yl)carbamoyl)-4-fluoro-1-isopropyl-1H-pyrazole-3-sulfonimidamide], the IC50 in assay [1] (read-out: hTHP-1 IC50 in 2% FBS, hTHP-1 assay containing 2% fetal bovine serum, listed as 816) was in the range of 5000 to 30000 nM; in assay [2] (read-out: hTHP-1 IC50 in 10% FBS, hTHP-1 assay containing 10% fetal bovine serum, Table B5, listed as 816), 1000 to 5000 nM.
For the compound `C[C@@H]1CCc2c1nc1c(c2NC(=O)N=S(N)(=O)c2nn(C3CC3)cc2F)CCC1` (single isomer, unassigned) [Example 867, (R) or (S)-1-cyclopropyl-4-fluoro-N′-(((R)-3-methyl-1,2,3,5,6,7-hexahydrodicyclopenta[b,e]pyridin-8-yl)carbamoyl)-1H-pyrazole-3-sulfonimidamide], the IC50 in assay [2] (setting [5]) is < 8 nM.
Turning to `Cc1c(C(F)(F)F)ncc(-c2ccnc(C#N)c2)c1NC(=O)N=S(N)(=O)c1sc(C(C)(C)O)nc1CO` (stereo not shown) [Compound 812], the IC50 in assay [2] (setting [4]) lay in the range of 40 to 200 nM.
In the case of `Cc1c(C(F)(F)F)nc2c(c1NC(=O)N=S(N)(=O)c1nn(C3CC3)cc1F)CCC2` (single isomer, unassigned) [Example 870, (S) or (R)-1-cyclopropyl-4-fluoro-N′-((3-methyl-2-(trifluoromethyl)-6,7-dihydro-5H-cyclopenta[b]pyridin-4-yl)carbamoyl)-1H-pyrazole-3-sulfonimidamide], in assay [2] (setting [5]), the IC50 was 1000 to 5000 nM.
As for `Cc1c(C(F)(F)F)nc2c(c1NC(=O)N=S(N)(=O)c1nn(C(C)(F)F)cc1F)CCC2` (single isomer, unassigned) [Compound 1004a, (R) or (S)-1-(1,1-Difluoroethyl)-4-fluoro-N′-((3-methyl-2-(trifluoromethyl)-6,7-dihydro-5H-cyclopenta[b]pyridin-4-yl)carbamoyl)-1H-pyrazole-3-sulfonimidamide], the IC50 in assay [2] (read-out: hTHP-1 IC50 in 10% FBS, hTHP-1 assay containing 10% fetal bovine serum, Table B5, listed as 832) was in the range of 40 to 200 nM.
With `Cc1c(C(F)(F)F)nc2c(c1NC(=O)N=S(N)(=O)c1cnc(C(F)(F)F)s1)CCC2` (stereo not shown) [Compound 1118, N′-((3-methyl-2-(trifluoromethyl)-6,7-dihydro-5H-cyclopenta [b]pyridin-4-yl)carbamoyl)-2-(trifluoromethyl) thiazole-5-sulfonimidamide], in assay [2] (setting [4]), the IC50 lay within 5000 to 30000 nM.
Regarding `Cc1c(C(F)(F)F)nc2c(c1NC(=O)N=S(N)(=O)c1nn(C(C)(F)F)cc1F)CCC2` (single isomer, unassigned) [Compound 1004b, (S) or (R)-1-(1,1-Difluoroethyl)-4-fluoro-N′-((3-methyl-2-(trifluoromethyl)-6,7-dihydro-5H-cyclopenta[b]pyridin-4-yl)carbamoyl)-1H-pyrazole-3-sulfonimidamide], the IC50 in assay [2] (read-out: hTHP-1 IC50 in 10% FBS, hTHP-1 assay containing 10% fetal bovine serum, Table B5, listed as 833) was in the range of 1000 to 5000 nM.
As to `Cc1nc2c(c(NC(=O)N=S(N)(=O)c3scc(C(C)(C)O)c3F)c1-c1ccccc1)CCC2` (single isomer, unassigned) [Compound 1110a, (S) or (R)-3-fluoro-4-(2-hydroxypropan-2-yl)-N′-((2-methyl-3-phenyl-6,7-dihydro-5H-cyclopenta[b]pyridin-4-yl)carbamoyl)thiophene-2-sulfonimidamide], the IC50 in assay [2] (read-out: hTHP-1 IC50 in 10% FBS, hTHP-1 assay containing 10% fetal bovine serum, Table B5, listed as 844) lay in the range of 200 to 1000 nM.
For the compound `Cc1c(C(F)(F)F)nc2c(c1NC(=O)N=S(N)(=O)c1nn(C3CC3)cc1F)CCC2` (single isomer, unassigned) [Example 869, (R) or (S)-1-cyclopropyl-4-fluoro-N′-((3-methyl-2-(trifluoromethyl)-6,7-dihydro-5H-cyclopenta[b]pyridin-4-yl)carbamoyl)-1H-pyrazole-3-sulfonimidamide], the IC50 in assay [2] (setting [5]) lay within 8 to 40 nM.
`CC(C)(O)c1csc(S(N)(=O)=NC(=O)Nc2c3c(nc(C(F)(F)F)c2C2CC2)CCC3)c1F` (single isomer, unassigned) [Compound 1105a, (R) or (S)-N′-((3-cyclopropyl-2-(trifluoromethyl)-6,7-dihydro-5H-cyclopenta[b]pyridin-4-yl)carbamoyl)-3-fluoro-4-(2-hydroxypropan-2-yl)thiophene-2-sulfonimidamide]: the IC50 in assay [2] (read-out: hTHP-1 IC50 in 10% FBS, hTHP-1 assay containing 10% fetal bovine serum, Table B5, listed as 834) fell in the range of 40 to 200 nM.
